Data on 20 compounds can be found in paper PMC5877736, “Functional Characteristics, Electrophysiological and Antennal Immunolocalization of General Odorant-Binding Protein 2 in Tea Geometrid, Ectropis obliqua” (International Journal of Molecular Sciences, 2018).

In one test the target is EoblGOBP2 (Ectropis obliqua, UniProt C0JAP5). Description: Competitive fluorescence ligand-binding assay with 1-NPN as fluorescent probe. The following applies: for binding to EoblGOBP2 (in words): competitive binding with 1-NPN. The procedure:
For EoblGOBP2 binding assays, 1-NPN was used as a competitive fluorescent reporter. When 1-NPN was added dropwise to the protein solution, the maximum emission peak at 340 nm was shifted to about 420 nm. The dissociation constant of 1-NPN to EoblGOBP2 was approximately 2.31 μM calculated using the Scatchard equation (Figure 5A). Using 1-NPN as a fluorescent probe, the binding affinities of EoblGOBP2 to 19 ligands were measured using competitive binding assays. IC50 values and dissociation constants (KD) were then calculated (Table 1).
Ligand-binding assays were performed on a RF-5031pc Fluorescence Spectrophotometer (Shimadzu, Tokyo, Japan). The excitation and emission slits were set to 10 nm. Fluorescence spectra were recorded from 300 to 550 nm with an excitation wavelength of 282 nm. The recombinant EoblGOBP2 protein solutions (1.5 μM), served in 1 cm light path quartz cuvette, were titrated with 1 mM 1-NPN solution in methanol. The fluorescence intensity at the maximum emission wavelength of about 328 nm was linearized using the Scatchard equation [46], then the dissociation constants for 1-NPN (K1-NPN) was calculated.
Nineteen fresh tea leaf volatiles were used as test ligands. For the binding affinities of the ligands to EoblGOBP2, a mixture of 1-NPN and EoblGOBP2 protein was titrated with 1 μM ligands dissolved in methanol. The IC50 values were obtained by data linearization, and the dissociation constants (KD) were calculated using the following equation: KD = [IC50]/(1 + [1-NPN]/K1-NPN), where [1-NPN] is the free concentration of 1-NPN, and K1-NPN is the dissociation constant of the protein/1-NPN complex.

In the next test the test system is E. obliqua antennae. Description: Electroantennogram (EAG) of male and female antennae. On the set-up: species or system Ectropis obliqua. The following applies: volatiles at 10 mg/mL (Figure 7). As for the experimental part:
To characterize the relationship between ligand-binding and E. obliqua olfactory activity, seven ligands with strong EoblGOBP2 binding affinities were selected for EAG measurements.
The antennal olfactory responses of E. obliqua to seven candidate tea volatiles were tested by the EAG technique. Prior to EAG experiments, all test ligands were dissolved into liquid paraffin at a concentration of 0.1 (v/v). The fresh […] antenna were excised from its base, and immediately attached onto the fork electrode holder using non-drying clay (Spectra 360 Electrode Gel, Parker Laboratories Inc., Orange, NJ, USA). […] All antennae should be tested in three replicates.
The odor stimulus was performed in the pulse while recording the electroantennogram of antennae. (E)-3-hexenol and liquid paraffin were chosen as the positive and negative control CK, respectively. All antennae were stimulated with five samples, and each tested sample was repeated six times. EAG signals were recorded and analyzed with EAG-Pro software (Syntech, Hilversum, NT). The relative values of EAG response were calculated using the following formula: Sr = (Sc − CKm)/(Rm − CKm)·100% [52]. Where Sr is the relative value of the EAG response, Sc is the EAG response for a certain odor, CKm is the mean of the EAG responses of liquid paraffin before and after the test odor stimulus, and Rm is the mean of the EAG response of (Z)-3-hexenol.

The mark [1] stands for this setting: class symbol, protein 1.5 μM, read-out: KD Dissociation Constant.
[2] abbreviates: calculated from IC50: KD = [IC50]/(1 + [1-NPN]/K1-NPN), protein 1.5 μM, read-out: KD Dissociation Constant.
The mark [3] stands for this setting: ligand concentration halving 1-NPN fluorescence, protein 1.5 μM.

Like-named read-outs stand apart in the source and are kept apart here.

EoblGOBP2, sequence (C0JAP5 entry or part of it): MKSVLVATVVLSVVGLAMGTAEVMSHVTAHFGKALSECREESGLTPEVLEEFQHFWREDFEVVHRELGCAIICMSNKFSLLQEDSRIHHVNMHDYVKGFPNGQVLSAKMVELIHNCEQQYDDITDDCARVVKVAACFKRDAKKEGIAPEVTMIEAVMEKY

Turning to `C1COCO1` [1,3-dioxolane], the half-maximal inhibitory concentration (IC50) (as a rule, the concentration needed to halve the response being measured) at EoblGOBP2 (class symbol, protein 1.5 μM) was more than 50 µM. Further, the Kd on EoblGOBP2 (setting [1]) was more than 11.2 µM. In addition, the “binding to EoblGOBP2 (in words)” value on EoblGOBP2 is “could not bind”.
In the case of `c1ccc(Nc2cccc3ccccc23)cc1` [1-NPN, N-phenyl-1-naphthylamine, reference compound], on EoblGOBP2 (direct titration, Scatchard equation, read-out: dissociation constant of 1-NPN to EoblGOBP2), the Kd was approximately 2.31 µM.
With `C=CC(O)CC` (stereo not drawn) [1-penten-3-ol], on EoblGOBP2 (class symbol, protein 1.5 μM), the 50% inhibitory concentration (IC50) is more than 50 µM. The Kd on EoblGOBP2 (setting [1]) was more than 11.2 µM.
With `CCCCCCC/C=C/C=O` [(E)-2-decenal], the Kd at EoblGOBP2 (setting [2]) is 20.7 µM. The same compound displayed an IC50 on EoblGOBP2 (setting [3]) of 92.4 µM. Also, the “EAG response, male versus female antennae” value in the test on E. obliqua antennae is recorded as “stronger in male antennae than in female antennae”.
On the same counts, the results for `CCC/C=C/C=O` [(E)-2-hexenal] are 32.2 µM, 143 µM and “stronger in male antennae than in female antennae”.
The compound `CC/C=C/C=O` [(E)-2-pentenal] came in with an IC50 at EoblGOBP2 (class symbol, protein 1.5 μM) of more than 50 µM. Moreover, the Kd at EoblGOBP2 (setting [1]) is more than 11.2 µM.
Turning to `CC/C=C\CCO` [(Z)-3-hexenol], at EoblGOBP2 (class symbol, protein 1.5 μM), the IC50 was more than 50 µM. The Kd on EoblGOBP2 (setting [1]) was more than 11.2 µM.
On to `CC(=O)c1ccccc1` [Acetophenone], for which the Kd at EoblGOBP2 (setting [2]) was 13 µM. The IC50 at EoblGOBP2 (setting [3]) amounted to 57.9 µM. In addition, in the test on E. obliqua antennae, the “EAG response, male versus female antennae” value is recorded as “stronger in male antennae than in female antennae”.
The like results for `O=Cc1ccccc1` [Benzaldehyde] were, in that order, 44.2 µM, 197 µM and “stronger in male antennae than in female antennae”.
For `OCc1ccccc1` [Benzyl alcohol], the IC50 on EoblGOBP2 (class symbol, protein 1.5 μM) was more than 50 µM. Further, on EoblGOBP2 (setting [1]), the Kd was more than 11.2 µM.
Take `CCCCOC(=O)c1ccccc1C(=O)OCCCC` [Dibutyl phthalate]: the Kd on EoblGOBP2 (setting [2]) is 4.35 µM. For the same compound, the 50% inhibitory concentration (IC50) at EoblGOBP2 (setting [3]) was 19.4 µM. Further, the “EAG response in male and female antennae (in words)” value in the test with E. obliqua antennae is on record as “weak responses”.
In the case of `CCCCCCCCCCCCCCCC(=O)O` [Hexadecanoic acid], the IC50 on EoblGOBP2 (class symbol, protein 1.5 μM) is more than 50 µM. The Kd on EoblGOBP2 (setting [1]) was more than 11.2 µM. Further, the “binding to EoblGOBP2 (in words)” value on EoblGOBP2 is “could not bind”.
Compound `C=CC(C)(O)CCC=C(C)C` (stereo not drawn) [Linalool] came in with an IC50 at EoblGOBP2 (class symbol, protein 1.5 μM) of more than 50 µM. Besides, the Kd on EoblGOBP2 (setting [1]) is more than 11.2 µM.
For the compound `COC(=O)c1ccccc1O` [Methyl salicylate], the Kd at EoblGOBP2 (setting [2]) was 43.5 µM. The compound further gave a half-inhibitory concentration (IC50) on EoblGOBP2 (setting [3]) of 194 µM. Moreover, the “EAG response, male versus female antennae” value in the test on E. obliqua antennae was “stronger in male antennae than in female antennae”.
`CC(C)=CCC/C(C)=C\CO` [Nerol] gave an IC50 at EoblGOBP2 (class symbol, protein 1.5 μM) of more than 50 µM. Moreover, at EoblGOBP2 (setting [1]), the Kd is more than 11.2 µM.
Take `CCOP(=O)(OCC)OCC` [Triethyl phosphate]: the IC50 on EoblGOBP2 (class symbol, protein 1.5 μM) was more than 50 µM. At EoblGOBP2 (setting [1]), the Kd is more than 11.2 µM.
Consider `CCCCCCO` [n-hexanol], for which the IC50 on EoblGOBP2 (class symbol, protein 1.5 μM) was more than 50 µM. Further, at EoblGOBP2 (setting [1]), the Kd was more than 11.2 µM.
The like results for `CCCCCO` [n-pentanol] were, in that order, more than 50 µM and more than 11.2 µM.
On to `CC1=CC[C@@H](C(C)(C)O)CC1` [α-terpineol], for which, on EoblGOBP2 (class symbol, protein 1.5 μM), the IC50 is more than 50 µM. Further, the Kd at EoblGOBP2 (setting [1]) was more than 11.2 µM.
With `CC(=O)/C=C/C1=C(C)CCCC1(C)C` [β-ionone], on EoblGOBP2 (setting [2]), the Kd was 12.6 µM. This compound also registered a half-maximal inhibitory concentration (IC50) at EoblGOBP2 (setting [3]) of 56.1 µM. Further, in the test with E. obliqua antennae, the “EAG response in male and female antennae (in words)” value is “weak responses”.
